Experimental data published in PubChem BioAssay (NCI).
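Cells were grown in 96-well plates and exposed to each compound for 48 hours at five concentrations; endpoints were interpolated linearly between bracketing concentrations, or set to the highest concentration if not reached. TGI: concentration producing complete growth inhibition.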

Legend:
Assay in all cases: NCI anticancer screen, dose series, 48 h
NCI-H226 lung = tested on: NCI-H226 lung
MDA-N = tested on: MDA-N
NCI-H460 lung = tested on: NCI-H460 lung
MCF7 breast = tested on: MCF7 breast
IGROV1 ovarian = tested on: IGROV1 ovarian
SW-620 colon = tested on: SW-620 colon
OVCAR-3 ovarian = tested on: OVCAR-3 ovarian
SF-295 CNS = tested on: SF-295 CNS
SN12C renal = tested on: SN12C renal
DU-145 prostate = tested on: DU-145 prostate
MDA-MB-435 = tested on: MDA-MB-435
PC-3 prostate = tested on: PC-3 prostate
SK-OV-3 ovarian = tested on: SK-OV-3 ovarian
T-47D breast = tested on: T-47D breast
NCI-H23 lung = tested on: NCI-H23 lung
MOLT-4 leukemia = tested on: MOLT-4 leukemia
UO-31 renal = tested on: UO-31 renal
OVCAR-4 ovarian = tested on: OVCAR-4 ovarian
MALME-3M melanoma = tested on: MALME-3M melanoma

| Structure (SMILES) | TGI (NCI-H226 lung) [µM] | TGI (MDA-N) [µM] | TGI (NCI-H460 lung) [µM] | TGI (MCF7 breast) [µM] | TGI (IGROV1 ovarian) [µM] | TGI (SW-620 colon) [µM] | TGI (OVCAR-3 ovarian) [µM] | TGI (SF-295 CNS) [µM] | TGI (SN12C renal) [µM] | TGI (DU-145 prostate) [µM] | TGI (MDA-MB-435) [µM] | TGI (PC-3 prostate) [µM] | TGI (SK-OV-3 ovarian) [µM] | TGI (T-47D breast) [µM] | TGI (NCI-H23 lung) [µM] | TGI (MOLT-4 leukemia) [µM] | TGI (UO-31 renal) [µM] | TGI (OVCAR-4 ovarian) [µM] | TGI (MALME-3M melanoma) [µM] |
| --- | --- | --- | --- | --- | --- | --- | --- | --- | --- | --- | --- | --- | --- | --- | --- | --- | --- | --- | --- |
| CC1(C)CC(=O)c2c(nc3ccc4ccccc4c3c2-c2ccc(NC(=O)CCCC(=O)Nc3ccc(-c4c5c(nc6ccc7ccccc7c46)CC(C)(C)CC5=O)cc3)cc2)C1 | > 100 | > 100 | > 100 | > 100 | > 100 | > 100 | > 100 | > 100 | > 100 | > 100 | > 100 | > 100 | > 100 | > 100 | > 100 | > 100 | > 100 |  |  |
| COc1ccc2[nH]c3c(c2c1)CCn1c-3nc2ccccc2c1=O |  | > 25 | > 25 | > 25 | > 25 | > 25 |  | > 25 | > 25 |  | > 25 | > 25 | > 25 | > 25 |  | > 25 | > 25 | > 25 |  |
| COc1ccc(NC2Oc3cc4c(cc3C(c3cccc(OC)c3OC)C2C)OCO4)cc1 (centres undefined) | > 100 | > 100 | > 100 | > 100 | > 100 | > 100 | > 100 | 32.3 | > 100 | > 100 | 43.1 | 51.3 | > 100 | > 100 | 79.5 | 35.9 | > 100 |  | 82.3 |
| COc1ccc(NS(=O)CCCc2ccccc2)cc1 (centres undefined) | > 100 | > 100 | > 100 | > 100 | > 100 | > 100 | > 100 | > 100 | > 100 | > 100 | > 100 |  |  | 71.9 | > 100 | > 100 | > 100 | > 100 | > 100 |
| O=C(c1ccccc1)c1ccc(COc2ccc(C(c3c(O)c4ccccc4oc3=O)c3c(O)c4ccccc4oc3=O)cc2)cc1 | 31 | 62 | 48.6 | 67.5 | 28.5 | 80.4 | 34.5 | 44.1 | > 100 | > 100 | 46.8 | 34.9 | 35.4 | 57.6 | 37.6 | 45.4 | 77.3 | 73 |  |
| N#C/C(=C\c1ccccc1)C(=O)Nc1nnc(-c2ccccc2)o1 | > 100 | > 100 |  | > 100 | > 100 | > 100 | 66.3 | > 100 | > 100 | > 100 | > 100 | > 100 | > 100 | > 100 | > 100 | > 100 | > 100 | > 100 | > 100 |
| COc1c2c(cc3oc(C)cc(=O)c13)OC(=N)C(C(N)=O)C2CC(=O)c1ccc(N)cc1 (centres undefined) | > 100 | > 100 | > 100 | > 100 | > 100 | > 100 | > 100 | > 100 | > 100 | > 100 | > 100 | > 100 |  | > 100 |  | > 100 | > 100 | > 100 | > 100 |
| N#CC(C#N)=Cc1ccc2c(c1)OC(Cl)O2 (centres undefined) | 38.2 | 35.2 |  | > 100 |  |  | 52.8 | 37.4 | 51.2 | 63 | 35.7 | 47.8 | 61.5 | > 100 | > 100 | > 100 | 30.7 | > 100 | 34.8 |
| O=c1cc(-c2cccc(Cl)c2)[nH]c2ncccc12 | > 100 | 0.0374 | > 100 | > 100 | > 58.9 | > 100 | 0.957 | 0.438 | 30.5 | > 100 | 0.0382 | 0.0694 | > 100 |  | > 100 | > 24.8 | > 54 | > 100 | > 100 |
| Cc1ccc(/C=N/Nc2cnccn2)s1 | > 100 | > 100 |  | > 100 | > 100 | > 100 | > 100 | > 100 | > 100 |  | > 100 | > 100 | > 100 | > 100 | > 100 | > 100 | > 100 | > 100 | > 100 |
| CCCN(C(=O)c1c(Cl)nnc(Cl)c1C(=O)c1cc(Cl)nnc1Cl)c1cc(Cl)nnc1Cl | 57.3 | 30 | 70.4 | 16.8 | 21.2 | 25.5 | 26.6 | 42.3 | 26.1 | 27.6 | 37 | 22.2 | > 100 | 23 | 20.3 | 12.5 | 33.2 | 38.1 |  |
| CCOC(=O)c1c(N2CCCC2)nsc1Nc1ccccc1 | > 100 | > 100 | > 100 |  | > 100 | > 100 |  | > 100 | > 100 | > 100 |  | > 100 |  | > 100 | > 100 | > 100 | > 100 | > 100 | > 100 |
| O=[N+]([O-])/C=C1\COCc2cc3c(cc21)OCO3 | 57.6 | 40.4 | 93.8 | 35.8 | > 100 | 47.4 | 35.9 | > 100 | 47.2 | 37.4 | 28.2 | 25.6 | > 100 | 46 | 27.1 | > 100 | 34.7 |  |  |
| CN(C)CCNC(=O)c1cccc2c(NCC(=O)O)c3ccccc3nc12 | 30.9 | > 100 |  | 27.8 | > 100 | > 100 | > 100 | 29.8 | > 100 | > 100 | 32.9 | 55.2 | > 100 |  | 45.1 | > 100 | > 100 | 30.9 | 35.9 |
| CC1=C(N2CC2)C(=O)c2nc3n(c2C1=O)CCC3OC(=O)CCl (centres undefined) | 0.17 | 0.056 | 0.123 | 0.0468 | 0.928 | 0.191 | 0.52 | 0.204 | 0.267 | 0.19 | 0.112 |  | 0.29 | 3.88 | 0.0825 | 5.89 | 0.0944 | 0.218 | 0.103 |
| [N-]=[N+]=Nc1c(-c2ccccc2)c(Cl)nc2ccccc12 | > 100 | > 100 | > 100 |  | > 100 | > 100 | > 100 | > 100 | > 100 |  | > 100 | > 100 | > 100 | > 100 | > 100 | > 100 | > 100 | > 100 | > 100 |
| COc1cc2c(c(OC)c1OC)C(=O)[C@H](O)[C@H]2NC(N)=O | > 100 | > 100 | > 100 | > 100 | > 100 | > 100 | > 100 | > 100 | > 100 | > 100 | > 100 | > 100 |  |  | > 100 | > 100 | > 100 |  | > 100 |
| CC12Nc3ccccc3N1C(=O)c1ccccc12 (centres undefined) | > 100 | > 100 | > 100 | > 100 | > 100 | > 100 | > 100 | > 100 | > 100 | > 100 | > 100 | > 100 | > 100 | > 100 | > 100 | > 100 | > 100 | > 100 |  |
| CCOC(=O)/C(C(=S)Nc1ccccc1)=C(/N)N1CCCC1 | > 100 | 84.9 | > 100 | > 100 | > 100 | > 100 | > 100 | > 100 | > 100 | > 100 | > 100 | > 100 |  |  | > 100 | > 100 | > 100 | > 100 | > 100 |
| CN(C(=O)Cc1cc(Cl)c(Cl)cc1N=C=S)[C@H]1CCCC[C@@H]1N1CCCC1 |  | 28.1 | 22 | 30.1 | 28.1 | 23.6 | 29.6 | 31.9 | 30.3 | 27.8 | 17 | 26.3 | 32.3 | 37.4 | 30.5 | 14.2 | 29.1 | 26.3 | 31.8 |
| CN(C)c1ccc(N=Nc2ccc3nc[nH]c3c2)cc1 | 82.1 | > 100 | 37.4 |  | > 100 | > 100 |  | 57.3 | 71 | 77.3 | 47.7 | > 100 |  | > 100 | > 100 | > 100 | 65.9 | 68.5 | 53 |
| CC(C)[C@@H]1NC(=O)[C@H]2N=C(O[C@@H]2C)[C@@H]2CCCN2C(=O)[C@H](Cc2ccccc2)NC(=O)[C@@H]2CSC(=N2)[C@@H](Cc2ccccc2)NC(=O)[C@@H]2CSC1=N2 | > 50 | > 50 |  | > 50 | > 50 | > 50 | > 50 | > 50 | > 50 | > 50 | > 50 | > 50 | > 50 | > 50 | > 50 | > 50 | > 50 | > 50 | > 50 |
| CC1(CCC2C=CCC2)CCCNC1=S (centres undefined) | > 10 | > 10 | > 10 | > 10 | > 10 | > 10 | > 10 | > 10 | > 10 | > 10 | > 10 | > 10 | > 10 | > 10 | > 10 | > 10 | > 10 |  | > 10 |
| O=c1oc2ccccc2c(Nc2ccc3c(c2)S(=O)(=O)c2ccccc2O3)c1[N+](=O)[O-] | 74.9 | 85.3 | 91.7 | 56.6 | 97.1 | > 100 | 79 | 77.7 | 92.9 | > 100 | 97.3 | 62.1 | 68 | 62.3 | 62.6 |  | 99.4 | 73.5 | 64.6 |
| COC(=O)[C@@H]1CN(C(=O)CCc2ccccc2)C(=O)N1C(=O)OCc1ccccc1 | > 100 | > 100 | > 100 | > 100 | > 100 | > 100 | > 100 | > 100 | > 100 | > 100 | > 100 |  | > 100 | > 100 | > 100 | > 100 | > 100 | > 100 | > 100 |
| C=CCOC(=O)/C(=C\c1ccc(OC)c(OC)c1)c1ccc(OC)c(OC)c1 | > 100 | > 100 | > 100 | > 100 | > 100 | > 100 | > 100 | > 100 | > 100 | > 100 | > 100 | > 100 | > 100 | 98.4 | > 100 | 49.5 | 80 |  | > 100 |
| CC1C(c2ccccc2)OP(=O)(OC(C#N)c2ccccc2)N1C (centres undefined) |  | > 100 | > 100 | > 100 | > 100 | > 100 | > 100 | > 100 | > 100 | > 100 | > 100 | > 100 | > 100 | > 100 | > 100 | > 100 | > 100 |  | > 100 |
